Experiment [1] concerns the target T1, Mitogen-activated protein kinase kinase kinase 14 (Homo sapiens, UniProt Q99558). Description: Inhibition of human recombinant GST-fused NIK expressed in Sf9 cells after 60 mins by radiometric protein kinase assay.
Target sequence in this assay (Q99558 whole entry, the tested form may be a part): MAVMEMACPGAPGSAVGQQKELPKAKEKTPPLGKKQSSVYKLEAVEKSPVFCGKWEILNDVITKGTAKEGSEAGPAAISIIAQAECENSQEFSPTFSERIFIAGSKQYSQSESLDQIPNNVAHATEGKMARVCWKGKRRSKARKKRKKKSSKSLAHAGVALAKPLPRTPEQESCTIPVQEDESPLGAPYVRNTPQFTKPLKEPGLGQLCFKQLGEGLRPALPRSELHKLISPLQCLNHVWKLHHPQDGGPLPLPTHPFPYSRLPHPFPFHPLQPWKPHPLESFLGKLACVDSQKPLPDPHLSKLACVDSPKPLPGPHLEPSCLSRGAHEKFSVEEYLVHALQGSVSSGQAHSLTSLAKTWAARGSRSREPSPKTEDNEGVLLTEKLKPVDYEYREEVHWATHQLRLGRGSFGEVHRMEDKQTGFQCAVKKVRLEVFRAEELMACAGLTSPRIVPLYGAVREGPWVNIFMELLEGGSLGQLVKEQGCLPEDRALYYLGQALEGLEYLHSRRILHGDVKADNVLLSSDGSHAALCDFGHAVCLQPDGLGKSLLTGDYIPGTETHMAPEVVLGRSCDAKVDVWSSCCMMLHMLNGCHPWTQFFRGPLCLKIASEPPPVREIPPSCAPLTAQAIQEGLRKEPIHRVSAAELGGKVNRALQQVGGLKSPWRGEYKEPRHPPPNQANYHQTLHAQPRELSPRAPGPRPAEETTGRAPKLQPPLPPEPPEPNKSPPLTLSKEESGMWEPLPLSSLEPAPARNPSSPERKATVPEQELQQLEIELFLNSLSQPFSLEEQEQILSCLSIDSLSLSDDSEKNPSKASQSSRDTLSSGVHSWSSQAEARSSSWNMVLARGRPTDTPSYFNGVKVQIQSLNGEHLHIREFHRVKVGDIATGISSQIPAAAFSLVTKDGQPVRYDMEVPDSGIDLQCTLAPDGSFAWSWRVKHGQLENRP
Experiment [2] has as its target T1, Mitogen-activated protein kinase kinase kinase 14. Description: Inhibition of human recombinant GST-fused NIK expressed in Sf9 cells at 50 uM after 60 mins by radiometric protein kinase assay.
Target sequence in this assay (Q99558 whole entry, looked up, the tested form may be a part): as the sequence (Q99558 whole entry, the tested form may be a part) above

Structures are written as SMILES.

Broadly, the IC50 is the concentration needed to halve the response being measured. Consider `O=c1[nH]c(=O)c2c(Cl)cc(Cl)cc2[nH]1`, for which the IC50 in experiment [1] is above 100 µM.

A word on the inhibition: it is the change of the read-out against control, counted positive when it falls. As for `O=C(Cn1c(=O)[nH]c(=O)c2ccccc21)NCc1ccccn1`, the inhibition in experiment [2] was below 15%.

As to `O=C1NC(=O)c2ccccc2/C1=C\c1cccs1`, the IC50 in experiment [1] was above 100 µM. The inhibition in experiment [2] is 25%.

Consider `CCO/C=C1/C(=O)NC(=O)c2ccccc21`, for which the IC50 in experiment [1] was above 50 µM. Moreover, in experiment [2], the inhibition turned out to be 44%.

On to `CCOC(=O)N1CCC(NC(=O)Cn2c(=O)[nH]c(=O)c3ccccc32)CC1`, for which, in experiment [2], the inhibition is below 15%.

Regarding `O=C1Cc2ccccc2C(=O)N1`, the IC50 in experiment [1] is 51 µM. Also, the inhibition in experiment [2] is 60%.

As to `CC1=CC(=O)c2c(O)cccc2C1=O` [PLUMBAGIN], the IC50 in experiment [1] is above 100 µM. Also, in experiment [2], the inhibition was determined as 60%.

On to `O=C1Cc2ccccc2CN1`, for which, in experiment [1], the IC50 is above 100 µM.

For the compound `CN(C)c1ccc(CNC(=O)Cn2c(=O)[nH]c(=O)c3ccccc32)cc1`, in experiment [2], the inhibition was below 15%.

With `CC(NC(=O)Cn1c(=O)[nH]c(=O)c2ccccc21)c1cccs1` (stereo unspecified), the inhibition in experiment [2] is below 15%.

For `O=C1CC2CC(=O)NC(=O)C2C(=O)N1` (stereo unspecified), the IC50 in experiment [1] came out at 90 µM. Besides, the inhibition in experiment [2] was 53%.

For the origin of these results see ChEMBL document CHEMBL1208710, “NF-kappaB inducing kinase (NIK) inhibitors: identification of new scaffolds using virtual screening” (Bioorg Med Chem Lett, 2010).
